In paper PMC9854712 (Antioxidants, 2023):

Key:
Type in all cases: cell-based
[1] = system: HTB-54, DU-145, HT-29 and MDA-MB-231 cancer cell lines; experiment: cells; conditions: against the panel of the four cancer cell lines
Procedure: (§1) The cell lines were obtained from the American Type Culture Collection (ATCC). Five tumor cell lines (MDA-MB-231, MCF-7, HCT116, HTB-54, and DU-145) and two non-tumorigenic cells (184B5 and BEAS-2B) were grown in RPMI 1640 medium (Gibco), and the HT-29 tumor cell line was grown in McCoy’s medium. Both mediums were supplemented with 10% fetal bovine serum (FBS; Gibco) and 1% antibiotics (10.00 units/mL penicillin and 10.00 μg/mL streptomycin; Gibco). Cells were preserved in tissue culture flasks at 37 °C and 5% CO2. The culture medium was replaced every three days.
(§2) The effect of each compound on cell viability was tested using the MTT assay. […] Selected compounds were then tested at seven different concentrations (0.5–100 μM) in MCF-7, HCT116, HT-29, HTB-54, 184B5 and BEAS-2B cells. Cells were seeded at 10^4 per well onto flat-bottomed 96-well culture plates. They were treated with either DMSO or increasing concentration of the corresponding compound for 48 h. Then, they were incubated with 20 μL of 3-(4,5-dimethylthiazol-2-yl)-2,5-diphenyltetrazolium bromide (MTT) (2 mg /mL stock; Aldrich) for 2,5 h and analyzed for their ability to generate a purple formazan dye. These formazan crystals were dissolved in 50 μL of DMSO. The absorbance was measured at a wavelength of 550 nm and the ratio of viable cells was calculated.
As a first approach, all the compounds were tested in vitro against lung (HTB-54), prostatic (DU-145), colon (HT-29), and triple-negative breast (MDA-MB-231) cancer cell lines at two concentrations (50 and 10 µM) for 48 h. Then, the MTT colorimetric assay was used to evaluate cell proliferation after the treatment. The data are expressed as the percentage of cell growth ± SD in at least three independent experiments performed in quadruplicates (Table S1).

BEAS-2B cells = experiment: MTT cell viability assay, BEAS-2B (non-tumorigenic); conditions: Homo sapiens, 48 h, nonmalignant bronchial epithelium
Procedure: as §1, §2
(§3) Results are expressed as cell viability % at 10 μM. Selectivity index were calculated as the ratio of the IC50 values determined for the non-malignant and the tumor cells in breast (IC50 (184B5)/IC50 (MCF-7)) and lung (IC50 (BEAS-2B)/IC50 (HTB-54)) cell lines. Data were obtained from at least three independent experiments performed in triplicates.

MDA-MB-231 cells = experiment: MTT cell viability assay, MDA-MB-231; conditions: Homo sapiens, MDA-MB-231, 48 h, read-out: Cell growth % at 10 µM, MDA-MB-231
Procedure: as §1, §2, §3

[2] = system: panel of 60 human tumor cell lines; experiment: NCI-60 analysis (One-Dose and Five-Dose), whole panel; conditions: 48 h; for GI50: Homo sapiens, Five-Dose assay, 60 cell lines; for mean growth percent: One Dose (10 µM), 60 cancer cell lines
Procedure: (§4) Compounds 14a and 17a were submitted to the Developmental Therapeutics Program (DTP) of National Cancer Institute (NCI). Cytotoxicity activity was evaluated by performing One-Dose screening (10^−5 M) against a panel of 60 human tumor cell lines. […] Cells grew in the RPMI 1640 medium containing 5% fetal bovine serum and 2 mM L-glutamine and were inoculated into 96-well microtiter plates in 100 μL at plating densities ranging from 5.000 to 40.000 cells/well. The microtiter plates inoculated with cells were incubated at 37 °C, in 5% humidified CO2 for 24 h prior to addition of experimental drugs. Then, experimental drugs were added, and the microtiter plates were incubated for 48 h. The protocol is available on https://dtp.cancer.gov/discovery_development/nci-60/methodology.htm accessed on 31 December 2022.

DU-145 cells = experiment: MTT cell viability assay, DU-145; conditions: Homo sapiens, DU-145, 48 h, read-out: Cell growth % at 10 µM, DU-145
Procedure: as §1, §2, §3

OVCAR-3 (ovarian) = experiment: NCI-60 Five-Dose assay, OVCAR-3; conditions: Homo sapiens, 48 h
Procedure: as §4

OVCAR-8 (ovarian) = experiment: NCI-60 Five-Dose assay, OVCAR-8; conditions: Homo sapiens, 48 h
Procedure: as §4

184B5 cells = experiment: MTT cell viability assay, 184B5 (non-tumorigenic); conditions: Homo sapiens, 48 h, nonmalignant mammary gland
Procedure: as §1, §2, §3

HTB-54 cells = experiment: MTT cell viability assay, HTB-54; conditions: for viability at 10 µM / IC50: HTB-54, 48 h, MTT; for viability at 10 µM: read-out: Cell growth % at 10 µM, HTB-54; for SI (lung): IC50 (BEAS-2B)/IC50 (HTB-54)
Procedure: as §1, §2, §3

SK-MEL-5 (melanoma) = experiment: NCI-60 Five-Dose assay, SK-MEL-5; conditions: Homo sapiens, 48 h
Procedure: as §4, with “Cytotoxicity activity was evaluated by performing One-Dose screening (10^−5 M) against a panel of 60 human tumor cell lines.” left out

[3] = system: NCI-H322M (non-small cell lung); experiment: NCI-60 Five-Dose assay, NCI-H322M; conditions: Homo sapiens, 48 h
Procedure: as §4

SNB-19 (CNS) = experiment: NCI-60 Five-Dose assay, SNB-19; conditions: Homo sapiens, 48 h
Procedure: as §4, with “Cytotoxicity activity was evaluated by performing One-Dose screening (10^−5 M) against a panel of 60 human tumor cell lines.” left out

[4] = system: HTB-54, HT-29, HCT116 and MCF-7 cancer cell lines; experiment: MTT IC50, all tested cancer cell lines; conditions: 48 h
Procedure: as §1
as §2, with “calculated. […]” for “calculated.”

HCT116 cells = experiment: MTT cell viability assay, HCT116; conditions: Homo sapiens, HCT-116, 48 h
Procedure: as §1, §2, §3

MCF-7 cells = experiment: MTT cell viability assay, MCF-7; conditions: for IC50: Homo sapiens, MCF7, MTT, 48 h; for SI (breast): IC50 (184B5)/IC50 (MCF-7)
Procedure: as §1, §2, §3

Row | Structure (SMILES) | viability at 10 µM [1] [%] | IC50 (BEAS-2B cells) [nM] | viability at 10 µM (MDA-MB-231 cells) [%] | GI50 [2] [nM] | mean growth percent [2] | viability at 10 µM (DU-145 cells) [%] | GI50 (OVCAR-3 (ovarian)) [nM] | GI50 (OVCAR-8 (ovarian)) [nM] | IC50 (184B5 cells) [nM] | viability at 10 µM (HTB-54 cells) [%] | IC50 (HTB-54 cells) [nM] | SI (lung) (HTB-54 cells) | GI50 (SK-MEL-5 (melanoma)) [nM] | GI50 [3] [nM] | GI50 (SNB-19 (CNS)) [nM] | IC50 [4] [nM] | IC50 (HCT116 cells) [nM] | IC50 (MCF-7 cells) [nM] | SI (breast) (MCF-7 cells)
1 | C=CC[Se]C(=O)c1ccccc1OC(C)=O [Compound 14a, 2-(allylselanylcarbonyl)phenylacetate] | < 55 | 7100 ± 2400 | 38.8 ± 3.6 | 1790 | −5.89 | 16.9 ± 8.6 | 1900 | 1500 | 10200 ± 100 | 34.2 ± 6.2 | 9900 ± 1100 | 0.7 | 1900 | 340 | 490 | < 10000 | 5900 ± 800 | 9900 ± 900 | 1.0
2 | C=CC[Se]C(=O)Cc1c(C)n(C(=O)c2ccc(Cl)cc2)c2ccc(OC)cc12 [Compound 17a, Se-allyl 2-[1-(4-chlorobenzoyl)-5-methoxy-2-methyl-1H-indol-3-yl]ethaneselenoate] | < 55 | 6300 ± 2300 | 26.5 ± 5.6 | 1740 | −26.70 | 16.3 ± 8.4 | 1800 | 1700 | 13300 ± 3900 | 21.9 ± 6.5 | 7900 ± 1900 | 0.8 | 1700 | 420 | 660 | < 10000 | 7000 ± 900 | 9800 ± 300 | 1.4
